Measured values as given in ChEMBL document CHEMBL1201862, “PubChem BioAssay data set” (2004).
Calls of active or inactive are those of the source.

How the values were obtained:
[1] = target: T1, Endoribonuclease toxin MazF (Escherichia coli K-12, UniProt P0AE70); test: SAR analysis of small molecule activators of the MazEF TA System via a fluorescence-based single-stranded RNase assay counterscreen. [Related pubchem assays (depositor defined):AID504720, AID504743]; format: functional
T1 sequence (P0AE70 whole entry): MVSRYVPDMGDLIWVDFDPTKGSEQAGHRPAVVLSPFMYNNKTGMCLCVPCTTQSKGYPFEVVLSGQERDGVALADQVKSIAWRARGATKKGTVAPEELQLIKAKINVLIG

[2] = target: T1, Endoribonuclease toxin MazF; test: MazF endoribonuclease activators, SAR follow-up, biochemical, fluorescence, single-stranded RNA substrate (AID 588603); format: functional
[3] = target: T1, Endoribonuclease toxin MazF; test: MazF toxin RNase activators, dose response, biochemical, fluorescence, single-stranded RNA substrate, uHTS hits (AID 588481); format: functional
MEF = test: SAR analysis of small molecule cytotoxicity of MazEF TA System activators in embryonic fibroblast (MEF) cells. [Related pubchem assays (depositor defined):AID504720, AID504743]; format: functional; details: Mus musculus
[4] = target: T1, Endoribonuclease toxin MazF; test: fluorescent RNA oligo signal without MazF, dose response, counter-screen for MazEF activator project, biochemical, fluorescence, single-stranded RNase substrate (AID 588502); format: functional
[5] = target: T2, Microphthalmia-associated transcription factor (Homo sapiens, UniProt O75030); test: TRPM1 promoter luciferase signal decrease, dose response, MITF inhibitor project, cell-based, SK-MEL-5, cherry-picked, set 3 (AID 493073); format: functional
T2 sequence (O75030 whole entry): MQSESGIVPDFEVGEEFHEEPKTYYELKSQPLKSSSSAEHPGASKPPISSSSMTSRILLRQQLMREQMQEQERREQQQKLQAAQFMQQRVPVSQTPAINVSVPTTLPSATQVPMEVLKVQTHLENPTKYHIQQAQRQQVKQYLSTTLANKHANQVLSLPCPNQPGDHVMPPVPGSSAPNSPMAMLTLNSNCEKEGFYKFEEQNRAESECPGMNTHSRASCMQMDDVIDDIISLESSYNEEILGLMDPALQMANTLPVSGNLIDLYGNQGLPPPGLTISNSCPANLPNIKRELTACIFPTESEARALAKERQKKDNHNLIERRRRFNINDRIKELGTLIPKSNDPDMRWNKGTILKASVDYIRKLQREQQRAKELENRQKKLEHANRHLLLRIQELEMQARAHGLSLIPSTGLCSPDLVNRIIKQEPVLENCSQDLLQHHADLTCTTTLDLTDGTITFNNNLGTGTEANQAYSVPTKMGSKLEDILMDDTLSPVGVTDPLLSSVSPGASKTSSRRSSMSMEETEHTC

[6] = target: T3, Apoptotic protease-activating factor 1 (Homo sapiens, UniProt O14727); format: functional
T3 sequence (O14727 whole entry): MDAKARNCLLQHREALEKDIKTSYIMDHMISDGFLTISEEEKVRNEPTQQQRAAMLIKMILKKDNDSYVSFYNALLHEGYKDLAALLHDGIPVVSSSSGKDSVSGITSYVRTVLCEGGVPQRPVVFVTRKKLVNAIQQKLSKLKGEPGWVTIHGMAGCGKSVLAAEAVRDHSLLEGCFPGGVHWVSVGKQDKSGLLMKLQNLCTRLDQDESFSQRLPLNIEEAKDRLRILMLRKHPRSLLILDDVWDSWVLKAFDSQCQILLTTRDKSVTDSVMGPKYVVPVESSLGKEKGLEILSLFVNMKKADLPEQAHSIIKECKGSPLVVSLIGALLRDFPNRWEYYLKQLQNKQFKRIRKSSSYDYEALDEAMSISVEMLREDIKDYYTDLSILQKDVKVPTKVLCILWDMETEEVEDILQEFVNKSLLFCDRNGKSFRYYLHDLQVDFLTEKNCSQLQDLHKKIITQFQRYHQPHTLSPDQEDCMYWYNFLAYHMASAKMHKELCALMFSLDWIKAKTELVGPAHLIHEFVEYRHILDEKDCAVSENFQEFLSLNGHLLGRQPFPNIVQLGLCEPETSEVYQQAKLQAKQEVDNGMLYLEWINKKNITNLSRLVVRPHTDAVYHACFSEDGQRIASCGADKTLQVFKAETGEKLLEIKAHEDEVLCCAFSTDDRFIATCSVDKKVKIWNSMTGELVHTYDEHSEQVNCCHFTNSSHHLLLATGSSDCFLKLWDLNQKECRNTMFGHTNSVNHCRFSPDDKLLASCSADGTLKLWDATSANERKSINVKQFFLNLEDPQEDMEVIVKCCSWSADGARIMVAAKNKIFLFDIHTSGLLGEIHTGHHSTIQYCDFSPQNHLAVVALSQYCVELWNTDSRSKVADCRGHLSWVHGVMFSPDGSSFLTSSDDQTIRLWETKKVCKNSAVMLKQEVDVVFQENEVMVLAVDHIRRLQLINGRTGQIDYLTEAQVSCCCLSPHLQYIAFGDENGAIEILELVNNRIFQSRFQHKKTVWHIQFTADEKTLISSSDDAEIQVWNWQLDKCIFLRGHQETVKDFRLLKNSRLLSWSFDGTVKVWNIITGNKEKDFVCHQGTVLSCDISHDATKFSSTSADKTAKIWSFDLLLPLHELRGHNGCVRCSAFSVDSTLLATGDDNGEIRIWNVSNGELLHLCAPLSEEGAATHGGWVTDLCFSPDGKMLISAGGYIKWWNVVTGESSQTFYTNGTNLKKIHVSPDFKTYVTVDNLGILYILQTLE

[7] = target: Eukaryotic translation initiation factor 4E (Mus musculus, UniProt P63073); test: eIF4E–eIF4G protein interaction inhibitors, dose response, biochemical, TR-FRET (AID 855); format: functional;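 note: potency for disrupting eIF4E binding to eIF4GI seen as loss of FRET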
[8] = C. albicans growth with fluconazole, confirmation, fluorescence, retest (AID 2467); format: functional, cell-based
[9] = target: Latent membrane protein 1 (Human herpesvirus 4 (strain B95-8), UniProt P03230); test: TES1-eGFP NF-kB reporter inhibition versus Tet-On dsRED, dose response, selectivity assay for LMP1 NF-kB inhibitor project, imaging, HEK293T, dual-color eGFP/dsRED, cherry-picks (AID 588398); format: functional, cell-based
[10] = NIH-3T3 fibroblast cytotoxicity, dose response, cytotoxicity control, cell-based, fluorescence, Alamar Blue, secondary assay (AID 2327); format: functional;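 note: NIH-3T3 mouse fibroblasts cultured with fluconazole at 8 µg/mL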
HEK293 [11] = test: inhibitors of LMP1-driven NF-kB reporter, dose response, cell-based, HEK293, luciferase, cherry-pick (AID 588343); format: functional; details: Homo sapiens
[12] = target: Lysine-specific demethylase 4C (Homo sapiens, UniProt Q9H3R0); test: GASC-1 (JMJD2C) histone demethylase inhibitors, dose response, biochemical, DELFIA europium, cherry-picked samples (AID 488835); format: functional
[13] = target: T4, Histone-lysine N-methyltransferase NSD2 (Homo sapiens, UniProt O96028); format: biochemical
T4 sequence (O96028 whole entry): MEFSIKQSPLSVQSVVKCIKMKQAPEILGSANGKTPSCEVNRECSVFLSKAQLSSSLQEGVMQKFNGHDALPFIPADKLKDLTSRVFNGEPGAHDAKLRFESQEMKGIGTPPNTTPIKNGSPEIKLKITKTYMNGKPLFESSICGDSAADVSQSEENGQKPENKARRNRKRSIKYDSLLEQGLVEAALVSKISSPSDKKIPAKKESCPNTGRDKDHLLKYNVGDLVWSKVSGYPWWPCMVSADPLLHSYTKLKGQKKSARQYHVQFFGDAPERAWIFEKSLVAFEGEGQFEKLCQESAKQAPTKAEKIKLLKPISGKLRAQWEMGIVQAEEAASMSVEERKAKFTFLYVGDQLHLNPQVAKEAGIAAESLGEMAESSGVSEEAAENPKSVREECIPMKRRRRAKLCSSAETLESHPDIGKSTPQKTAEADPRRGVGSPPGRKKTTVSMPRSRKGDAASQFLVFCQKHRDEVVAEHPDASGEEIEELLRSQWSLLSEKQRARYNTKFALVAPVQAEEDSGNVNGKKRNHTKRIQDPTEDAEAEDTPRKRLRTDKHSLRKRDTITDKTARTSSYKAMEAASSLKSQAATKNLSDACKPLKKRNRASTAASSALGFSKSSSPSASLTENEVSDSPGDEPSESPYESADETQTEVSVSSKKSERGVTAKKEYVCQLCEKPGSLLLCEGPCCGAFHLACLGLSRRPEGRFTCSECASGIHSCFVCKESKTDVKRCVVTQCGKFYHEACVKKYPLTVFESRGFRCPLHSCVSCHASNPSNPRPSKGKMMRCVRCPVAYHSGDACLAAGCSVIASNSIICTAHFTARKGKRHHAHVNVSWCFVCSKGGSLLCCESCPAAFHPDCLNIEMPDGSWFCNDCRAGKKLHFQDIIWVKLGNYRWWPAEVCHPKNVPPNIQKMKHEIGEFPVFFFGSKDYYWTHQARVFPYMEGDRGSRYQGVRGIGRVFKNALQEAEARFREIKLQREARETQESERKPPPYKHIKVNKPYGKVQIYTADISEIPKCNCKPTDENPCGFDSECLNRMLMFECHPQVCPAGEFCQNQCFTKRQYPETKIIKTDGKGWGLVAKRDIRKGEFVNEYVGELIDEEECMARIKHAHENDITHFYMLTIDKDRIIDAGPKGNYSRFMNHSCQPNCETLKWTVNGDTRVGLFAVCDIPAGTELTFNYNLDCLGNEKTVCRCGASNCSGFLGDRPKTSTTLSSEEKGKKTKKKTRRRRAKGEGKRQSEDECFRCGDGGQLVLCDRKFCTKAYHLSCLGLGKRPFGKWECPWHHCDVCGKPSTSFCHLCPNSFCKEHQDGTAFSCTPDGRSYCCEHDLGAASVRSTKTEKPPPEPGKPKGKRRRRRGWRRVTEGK

[14] = target: T5, Type-1 angiotensin II receptor (Homo sapiens, UniProt P30556); test: AT1 receptor antagonists, dose response, selectivity assay for APJ receptor antagonist project, cell-based, uHTS hits (AID 463214); format: functional;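 note: antagonist potency against angiotensin II stimulated AT1 response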
T5 sequence (P30556 whole entry): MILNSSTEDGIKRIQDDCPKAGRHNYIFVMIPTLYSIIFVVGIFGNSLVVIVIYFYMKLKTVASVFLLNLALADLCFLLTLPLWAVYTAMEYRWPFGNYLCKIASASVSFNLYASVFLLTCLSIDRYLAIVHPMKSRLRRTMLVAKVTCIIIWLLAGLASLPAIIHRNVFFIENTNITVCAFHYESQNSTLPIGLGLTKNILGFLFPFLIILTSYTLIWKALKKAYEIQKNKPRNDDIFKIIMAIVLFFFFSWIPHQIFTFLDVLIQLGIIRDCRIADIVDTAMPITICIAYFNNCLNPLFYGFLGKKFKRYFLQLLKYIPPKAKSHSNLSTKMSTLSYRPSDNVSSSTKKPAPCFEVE

Beta-galactosidase = Beta-galactosidase (Escherichia coli, UniProt Q8VNN2); test: PubChem AID 485352; format: functional
HEK293 [15] = test: SAR Analysis of small molecule inhibitors of T-cell specific antigen receptor-induced NF-kB activation in a HEK-293T cell line using a luminescence assay - Set 2. [Related pubchem assays (depositor defined):AID435003, AID435012, AID489026]; format: functional, cell-based; details: Homo sapiens
Jurkat = test: SAR Analysis of small molecule inhibitors of T-cell specific antigen receptor-induced NF-kB activation in a Jurkat cell line using a luminescence assay - Set 2. [Related pubchem assays (depositor defined):AID435003, AID435012, AID465]; format: functional, cell-based; details: Homo sapiens
[16] = control 3'UTR Renilla luciferase suppression, dose response, counter-screen for Shn3 inhibitor project, cell-based, Clone20-Shn3RL, cherry-picked (AID 624133); format: functional
[17] = HepG2 cell cytotoxicity, dose response, cytotoxicity control for Shn3 inhibitor project, CellTiter-Glo, cherry-picked (AID 624134); format: functional, cell-based
HEK293 [18] = test: cytotoxicity in HEK293T NF-kB-Luc cells, SAR follow-up, cytotoxicity control for NF-kB activator project, cell-based, resazurin fluorescence (AID 493251); format: functional; details: Homo sapiens
[19] = Shn3 3'UTR reporter inhibitors, dose response, cell-based, Clone20 osteoblasts, firefly luciferase, cherry-picked (AID 624132); format: functional;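 note: firefly luciferase luminescence from reporter carrying the Shn3 3'UTR in osteoblasts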

Sequence of Latent membrane protein 1 (P03230 whole entry): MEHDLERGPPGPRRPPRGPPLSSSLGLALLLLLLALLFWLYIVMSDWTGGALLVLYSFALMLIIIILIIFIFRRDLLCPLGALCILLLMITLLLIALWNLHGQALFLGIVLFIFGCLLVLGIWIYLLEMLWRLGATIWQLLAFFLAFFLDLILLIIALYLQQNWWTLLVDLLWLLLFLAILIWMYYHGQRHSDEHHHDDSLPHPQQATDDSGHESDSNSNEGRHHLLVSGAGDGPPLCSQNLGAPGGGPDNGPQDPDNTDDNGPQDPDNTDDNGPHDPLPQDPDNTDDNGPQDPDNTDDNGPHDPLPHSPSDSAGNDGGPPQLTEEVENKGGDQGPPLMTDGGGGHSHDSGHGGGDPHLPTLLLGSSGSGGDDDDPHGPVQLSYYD
Sequence of Eukaryotic translation initiation factor 4E (P63073 whole entry): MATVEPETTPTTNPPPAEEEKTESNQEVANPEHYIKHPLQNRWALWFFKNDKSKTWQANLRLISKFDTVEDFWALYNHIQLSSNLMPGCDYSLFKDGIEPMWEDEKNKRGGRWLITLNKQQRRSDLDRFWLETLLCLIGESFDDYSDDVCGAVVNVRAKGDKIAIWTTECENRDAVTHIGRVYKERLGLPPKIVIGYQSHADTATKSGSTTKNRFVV
Sequence of Beta-galactosidase (Q8VNN2 whole entry): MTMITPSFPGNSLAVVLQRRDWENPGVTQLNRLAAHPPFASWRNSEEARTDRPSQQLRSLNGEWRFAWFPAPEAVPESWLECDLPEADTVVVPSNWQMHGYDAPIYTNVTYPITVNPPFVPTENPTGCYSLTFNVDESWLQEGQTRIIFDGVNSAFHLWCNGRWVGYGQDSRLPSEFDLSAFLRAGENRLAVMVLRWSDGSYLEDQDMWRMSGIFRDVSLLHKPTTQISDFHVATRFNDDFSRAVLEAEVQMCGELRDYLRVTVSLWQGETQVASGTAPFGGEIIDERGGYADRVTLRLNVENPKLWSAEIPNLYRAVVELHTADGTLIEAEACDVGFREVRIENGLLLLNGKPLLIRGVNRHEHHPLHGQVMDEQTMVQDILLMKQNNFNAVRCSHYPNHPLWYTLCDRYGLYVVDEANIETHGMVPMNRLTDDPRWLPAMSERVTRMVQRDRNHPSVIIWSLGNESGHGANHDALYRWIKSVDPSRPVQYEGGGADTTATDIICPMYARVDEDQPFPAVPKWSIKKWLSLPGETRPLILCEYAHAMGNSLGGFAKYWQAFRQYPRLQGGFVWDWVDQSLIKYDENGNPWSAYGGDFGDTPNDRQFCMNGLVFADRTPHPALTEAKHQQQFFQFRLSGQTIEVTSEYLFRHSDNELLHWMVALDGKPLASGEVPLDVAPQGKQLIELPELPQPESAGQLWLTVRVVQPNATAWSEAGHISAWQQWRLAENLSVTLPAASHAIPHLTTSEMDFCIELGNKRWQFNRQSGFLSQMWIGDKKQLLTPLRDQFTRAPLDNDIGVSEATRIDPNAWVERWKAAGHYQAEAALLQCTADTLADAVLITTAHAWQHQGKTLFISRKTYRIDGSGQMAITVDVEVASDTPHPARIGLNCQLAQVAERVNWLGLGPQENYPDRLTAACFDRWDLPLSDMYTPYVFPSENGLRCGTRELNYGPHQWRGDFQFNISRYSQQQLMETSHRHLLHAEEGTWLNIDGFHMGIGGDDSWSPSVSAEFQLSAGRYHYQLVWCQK
Sequence of Lysine-specific demethylase 4C (Q9H3R0 whole entry): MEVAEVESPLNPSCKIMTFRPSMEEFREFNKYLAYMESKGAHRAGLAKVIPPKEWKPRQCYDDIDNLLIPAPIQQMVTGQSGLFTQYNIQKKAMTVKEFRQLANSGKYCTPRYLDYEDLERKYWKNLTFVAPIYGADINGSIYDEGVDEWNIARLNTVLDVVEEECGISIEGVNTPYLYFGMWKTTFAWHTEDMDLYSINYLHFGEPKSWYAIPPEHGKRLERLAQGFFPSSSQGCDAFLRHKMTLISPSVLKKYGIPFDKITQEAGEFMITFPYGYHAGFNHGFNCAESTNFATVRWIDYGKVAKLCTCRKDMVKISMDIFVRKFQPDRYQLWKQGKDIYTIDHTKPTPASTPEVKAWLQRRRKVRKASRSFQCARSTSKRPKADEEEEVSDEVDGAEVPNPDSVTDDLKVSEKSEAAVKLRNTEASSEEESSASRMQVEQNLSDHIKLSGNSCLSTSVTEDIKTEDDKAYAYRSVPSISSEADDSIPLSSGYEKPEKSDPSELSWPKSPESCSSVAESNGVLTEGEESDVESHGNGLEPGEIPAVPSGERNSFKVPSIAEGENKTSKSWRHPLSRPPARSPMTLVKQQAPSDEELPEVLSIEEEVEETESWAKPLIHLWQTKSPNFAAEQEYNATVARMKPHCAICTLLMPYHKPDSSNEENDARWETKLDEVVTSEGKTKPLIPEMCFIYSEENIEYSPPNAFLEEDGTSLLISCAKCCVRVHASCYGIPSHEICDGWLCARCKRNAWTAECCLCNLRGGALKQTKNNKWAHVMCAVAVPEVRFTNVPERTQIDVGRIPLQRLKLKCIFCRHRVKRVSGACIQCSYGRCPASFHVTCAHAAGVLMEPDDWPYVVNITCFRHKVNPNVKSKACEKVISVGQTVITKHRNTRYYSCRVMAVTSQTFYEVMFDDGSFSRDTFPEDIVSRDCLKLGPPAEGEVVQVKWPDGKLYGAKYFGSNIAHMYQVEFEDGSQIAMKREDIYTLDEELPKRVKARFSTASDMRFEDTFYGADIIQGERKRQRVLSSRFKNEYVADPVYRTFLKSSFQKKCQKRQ

SMILES | EC50 [1] | EC50 [2] | EC50 [3] | CC50 (MEF) | EC50 [4] | IC50 [6] | AC50 [9] | AC50 (HEK293 [11]) | also measured
N#Cc1cc2ccccc2nc1SCC(=O)Nc1ccccc1N1CCOCC1 | > 99 µM (inactive) | 5.15 µM (active) | 17.5 µM (active) | > 99 µM (inactive) | > 99 µM (inactive) |  |  |  | 
NC(=O)C1CCN(C2=C(NS(=O)(=O)c3ccc(Br)cc3)C(=O)c3ccccc3C2=O)CC1 |  |  |  |  |  | 16.9 µM (active) |  |  | AC50 [5]: 11.9 µM (active)
COc1cc(C(=O)Oc2cc(N)n(S(=O)(=O)c3ccc(F)cc3)n2)cc(OC)c1OC | > 99 µM (inactive) | 3.48 µM (active) | 14.8 µM (active) | 85.3 µM (active) | > 99 µM (inactive) |  |  |  | 
Cn1cccc1-c1cc(C(=O)N2CCc3c([nH]c4ccccc34)C2c2ccccn2)[nH]n1 (stereo not given) |  |  |  |  |  |  | 21.6 µM (active) | 25.8 µM (active) | IC50 [7]: 50 µM (inactive); EC50 [8]: 2.76 µM (active); EC50 [10]: 21.3 µM (active)
C=CCN(CC=C)Cc1c(O)ccc2c1oc(=O)c1ccccc12 |  |  |  |  |  | 60.3 µM (active) |  |  | AC50 [12]: 0.48 µM (active); AC50 [13]: 4.02 µM (active); IC50 [14]: > 40 µM (not active); EC50 (Beta-galactosidase): > 40 µM (inactive)
CCCCC(=O)NC(c1ccc(OC)cc1)c1ccc2cccnc2c1O (stereo not given) |  |  |  |  |  |  | 11.6 µM (active) | 15.8 µM (active) | IC50 (HEK293 [15]): 5.25 µM (active); IC50 (Jurkat): 3.22 µM (active); AC50 [16]: 8.8 µM (active); AC50 [17]: 5.14 µM (active); IC50 (HEK293 [18]): 21.7 µM (inactive); AC50 [19]: 2.28 µM (active)
